# Experimental data published in PMC7767178 (International Journal of Molecular Sciences, 2020).
# Like-named read-outs stand apart in the source and are kept apart here. Positions of bridges follow the written chain, without caps; N, C: chain ends. Residues, ends and D or L forms follow the SMILES beside them.
# Assays:
# [1] = tested on: A. veronii ACCC61732 biofilm; type: cell-based; settings: 16× MIC, 24 h, crystal violet
# Method: Mid-log phase A. veronii ACCC61732 cells (1 × 10^8 CFU/mL, 180 µL) were added into the 96-well plates. […] Effects of peptides on biofilms formation was evaluated by the crystal violet staining as previously described. The untreated bacteria were used as the negative control (A) and fresh TSB medium was used as the blank control (A0). The inhibition effect of peptides on early biofilms was determined by the following equation: Biofilms (%) = [(Apeptides − A0)/(A − A0)] × 100.
# MDR A. veronii ACCC61732 = experiment: Mouse peritonitis model, survival; type: in vivo, ICR mice; settings: seven days, six mice
# Method: […]. The mice injected with only bacteria or saline served as the negative and blank control. The mouse survival was recorded daily for seven days.
# S. hyicus 437-2 = type: cell-based
# A. veronii = experiment: MIC, range over strains; type: cell-based; settings: range over the strains of Table 2
# Excerpt: (§1) All experiments were repeated three times.
# Escherichia coli = experiment: MIC, range over strains; type: cell-based; settings: range over the strains of Table 2
# Excerpt: as §1
# [2] = tested on: Pseudomonas aeruginosa and Gram-positive bacteria such as Staphylococcus aureus and S. hyicus; experiment: MIC, range over strains; type: cell-based; settings: range over the strains of Table 2
# Excerpt: as §1
# A. veronii ACCC61732 [3] = type: physicochemical; settings: MIC against A. veronii ACCC61732; for MIC after treatment at 4 °C: 1 h at 4 °C; for MIC after treatment at 20 °C: 1 h at 20 °C; for MIC after treatment at 40 °C: 1 h at 40 °C; for MIC after treatment at 60 °C: 1 h at 60 °C; for MIC after treatment at 80 °C: 1 h at 80 °C
# Method: The thermal stability of peptides was determined after treatment for 1 h at different temperatures (4, 20, 40, 60, 80, and 100 °C). The relative antibacterial activity of peptides against A. veronii ACCC61732 was determined by the MIC assay.
# A. veronii ACCC61732 [4] = experiment: pH stability, MIC read-out; type: physicochemical; settings: MIC against A. veronii ACCC61732; for MIC after treatment at pH 10: glycine-NaOH buffer pH 10.0, 3 h; for MIC after treatment at pH 6: sodium phosphate buffer pH 6.0, 3 h; for MIC after treatment at pH 8: tris-HCl buffer pH 8.0, 3 h
# Method: To evaluate pH stability, peptides were dissolved in glycine-HCl buffer (pH 2.0), sodium acetate buffer (pH 4.0), sodium phosphate buffer (pH 6.0), tris-HCl buffer (pH 8.0), or glycine-NaOH buffer (pH 10.0) and treated for 3 h. The MIC values of peptides against A. veronii ACCC61732 were measured as described above.
# A. veronii ACCC61732 [5] = settings: 3 h, MIC against A. veronii ACCC61732; for MIC after physiological salt 50 mM: NaCl 50 mM; for MIC after physiological salt 100 mM: NaCl 100 mM
# Method: Similarly, salt stability of peptides was determined after a 3 h-incubation in different NaCl solutions (50, 100, 200, 300, 400, and 500 mM). […] The activity of peptides against A. veronii ACCC61732 was determined as described above. The untreated peptides were used as the positive control and buffers alone were used as the negative control. All assays were conducted in triplicate.
# [6] = 60 min, 200 μg/mL peptide, 37 °C, inhibition zone against A. veronii ACCC61732
# Method: Briefly, a final concentration of 200 μg/mL peptide was incubated in SGF and SIF at 37 °C. At different time intervals, an aliquot of 20 μL mixture was taken and the activity of peptides was tested against A. veronii ACCC61732 by the inhibition zone assay. […] in PBS was used as the positive control; SGF and SIF were used as negative controls.
# RAW 264.7 cells = experiment: Cytotoxicity, MTT; type: cell-based; settings: 24 h
# Method: To determine the cytotoxicity of peptides, RAW 264.7 cells (2.5 × 10^4 cells/well) were seeded into 96-well plates and incubated for 24 h. […] The cells were dyed with 3-(4,5-dimethyl-2-thiazolyl)-2,5-diphenyl-2-H-tetrazolium bromide (MTT) (5 mg/mL) for 4 h, incubated with dimethyl sulfoxide (DMSO), and measured at 570 nm. PBS was used as controls. The cell survival rate was calculated by the equation: Survival rate (%) = (Abspeptide/AbsPBS) × 100 [25].
# A. veronii ACCC61732 [7] = experiment: SEM morphology; type: cell-based; settings: 4× MIC, 2 h
# Method: MDR A. veronii ACCC61732 cells were cultured in MHB at 37 °C (250 rpm) until the mid-log phase of growth, harvested by centrifugation, and diluted with 0.01 M PBS (pH 7.4) to 0.5–5 × 10^8 CFU/mL. […] For SEM, the samples were harvested (5000× g, 5 min) and fixed with 2.5% glutaraldehyde at 4 °C overnight. The cells were dehydrated for 10 min in a graded ethanol series (50%, 70%, 90%, and 100%) and transferred to a mixture of 100% ethanol, tertiary butanol, and absolute tertiary butanol (v:v = 1:1) for 15 min. Finally, the specimens were dehydrated in a critical point dryer with liquid CO2, coated with gold–palladium, and observed using a QUANTA200 (FEI, Philips, Amsterdam, Netherlands).
# pepsin = settings: pH 2
# [8] = 37 °C
# proteinase K = proteinase K (Parengyodontium album, UniProt P06873); settings: proteinase K 40 mAU/mg, pH 7.0, peptide:enzyme 10:1 (w/w); MIC against A. veronii ACCC61732; triplicate
# Chain of proteinase K (P06873 106-384): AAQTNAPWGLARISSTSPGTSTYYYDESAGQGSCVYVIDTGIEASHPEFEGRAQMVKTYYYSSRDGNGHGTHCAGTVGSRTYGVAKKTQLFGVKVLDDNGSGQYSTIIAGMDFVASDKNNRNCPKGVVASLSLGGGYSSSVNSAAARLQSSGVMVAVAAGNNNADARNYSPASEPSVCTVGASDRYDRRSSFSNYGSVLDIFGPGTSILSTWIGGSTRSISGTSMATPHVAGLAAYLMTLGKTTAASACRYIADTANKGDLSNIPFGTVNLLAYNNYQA
# [9] = S. hyicus 437-2 (clinical isolate, pig farm), broth dilution, 37 °C, 16–18 h, three experiments
# [10] = 5 μmol/kg i.p. 0.5 h after infection
Compound,MIC (S. hyicus 437-2) [µM],MIC (S. hyicus 437-2; [9]) [mg/L],MIC values against A. veronii (A. veronii) [µM],MIC values against Escherichia coli (Escherichia coli) [µM],MIC after treatment at 4 °C (A. veronii ACCC61732 [3]) [mg/L],MIC after treatment at 20 °C (A. veronii ACCC61732 [3]) [mg/L],MIC after treatment at 40 °C (A. veronii ACCC61732 [3]) [mg/L],MIC after treatment at 60 °C (A. veronii ACCC61732 [3]) [mg/L],MIC after treatment at 80 °C (A. veronii ACCC61732 [3]) [mg/L],MIC after treatment at pH 10 (A. veronii ACCC61732 [4]) [μg/mL],MIC after treatment at pH 6 (A. veronii ACCC61732 [4]) [μg/mL],MIC after treatment at pH 8 (A. veronii ACCC61732 [4]) [μg/mL],MIC after physiological salt 50 mM (A. veronii ACCC61732 [5]) [μg/mL],MIC after physiological salt 100 mM (A. veronii ACCC61732 [5]) [μg/mL],survival rate of mice (MDR A. veronii ACCC61732; [10]) [%],other results
"O=C(O)c1cn(C2CC2)c2cc(N3CCNCC3)c(F)cc2c1=O [CIP, ciprofloxacin, reference compound]",–,–,–,–,–,–,–,–,–,–,–,–,–,–,–,inhibition of early biofilm [1]: 70.75%; survival rate of mice (MDR A. veronii ACCC61732; 1 μmol/kg i.p. 0.5 h after infection): 83.33%
CC(C)[C@H]1NC(=O)CNC(=O)[C@@H](CC(N)=O)NC(=O)[C@@H](CCCNC(=N)N)NC(=O)[C@@H](Cc2ccc(O)cc2)NC(=O)[C@@H](C(C)C)NC(=O)[C@H](NC(=O)[C@H](NC(=O)[C@@H](CC(N)=O)NC(=O)[C@@H](Cc2c[nH]c3ccccc23)NC(=O)[C@@H](C)NC(=O)[C@@H](Cc2ccccc2)NC(=O)CN)C(C)C)CSSC[C@H](C(=O)N[C@H](Cc2c[nH]cn2)C(=O)N[C@H](CCCNC(=N)N)C(=O)N[C@H](CCCNC(=N)N)C(=O)N[C@H](C)C(=O)N[C@H](CC(N)=O)C(N)=O)NC(=O)[C@@H](C(C)C)NC(=O)[C@@H](CCCNC(=N)N)NC1=O [DN6NH2],3.23,8,1.62 to 25.86,1.62 to 3.23,4,4,4,4,4,4,4,4,4,4,–,"MICs against Pseudomonas aeruginosa and Gram-positive bacteria such as S. aureus and S. hyicus [2]: 1.62 to 6.46 µM; MIC after physiological salt 200 mM (A. veronii ACCC61732 [5]; NaCl 200 mM): 4 μg/mL; MIC after physiological salt 300 mM (A. veronii ACCC61732 [5]; NaCl 300 mM): 4 μg/mL; MIC after physiological salt 400 mM (A. veronii ACCC61732 [5]; NaCl 400 mM): 4 μg/mL; MIC after physiological salt 500 mM (A. veronii ACCC61732 [5]; NaCl 500 mM): 4 μg/mL; antibacterial activity after treatment in SGF [6]: higher antibacterial activity than N6NH2 and other analogs; cell survival rate at low concentrations (RAW 264.7 cells): over 100%; cells producing filamentous substances (A. veronii ACCC61732 [7]): over 50%; MIC after pepsin treatment (pepsin): retained the antibacterial activity; activity retained in SIF ([8]; 200 μg/mL peptide, inhibition zone against A. veronii ACCC61732): 100%; state after incubation in SIF ([8]; 1 h): remained intact"
CC(C)[C@@H]1NC(=O)CNC(=O)[C@H](CC(N)=O)NC(=O)[C@H](CCCNC(=N)N)NC(=O)[C@H](Cc2ccc(O)cc2)NC(=O)[C@H](C(C)C)NC(=O)[C@@H](NC(=O)[C@@H](NC(=O)[C@H](CC(N)=O)NC(=O)[C@H](Cc2c[nH]c3ccccc23)NC(=O)[C@H](C)NC(=O)[C@H](Cc2ccccc2)NC(=O)CN)C(C)C)CSSC[C@@H](C(=O)N[C@@H](Cc2cnc[nH]2)C(=O)N[C@@H](CCCNC(=N)N)C(=O)N[C@@H](CCCNC(=N)N)C(=O)N[C@@H](C)C(=O)N[C@@H](CC(N)=O)C(N)=O)NC(=O)[C@H](C(C)C)NC(=O)[C@H](CCCNC(=N)N)NC1=O [N6NH2],12.9,32,–,–,4,4,4,4,4,4,4,4,4,4,–,"MIC after treatment at pH 2 (A. veronii ACCC61732 [4]; glycine-HCl buffer pH 2.0, 3 h): 4 μg/mL; MIC after treatment at pH 4 (A. veronii ACCC61732 [4]; sodium acetate buffer pH 4.0, 3 h): 4 μg/mL; MIC after proteinase K treatment (proteinase K): > 128 mg/L"
CC(C)[C@@H]1NC(=O)CNC(=O)[C@H](CC(N)=O)NC(=O)[C@H](CCCNC(=N)N)NC(=O)[C@H](Cc2ccc(O)cc2)NC(=O)[C@H](C(C)C)NC(=O)[C@@H](NC(=O)[C@@H](NC(=O)[C@H](CC(N)=O)NC(=O)[C@H](Cc2c[nH]c3ccccc23)NC(=O)[C@H](C)NC(=O)[C@H](Cc2ccccc2)NC(=O)CN)C(C)C)CSSC[C@@H](C(=O)N[C@@H](Cc2c[nH]cn2)C(=O)N[C@@H](CCCNC(=N)N)C(=O)N2CCC[C@H]2C(=O)N[C@@H](C)C(=O)N[C@@H](CC(N)=O)C(N)=O)NC(=O)[C@H](C(C)C)NC(=O)[C@H](CCCNC(=N)N)NC1=O [N6PNH2] (H-GFAWNVCVYRNGVRVCHRPAN-NH2; disulfide 7-16 (inferred)),–,>64,6.62 to 26.49,1.66 to 3.31,–,–,–,–,–,–,–,–,–,–,50,–
CC(C)[C@H](N)C(=O)N[C@@H](Cc1ccccc1)C(=O)N[C@@H](C)C(=O)N[C@@H](Cc1c[nH]c2ccccc12)C(=O)N[C@@H](CC(N)=O)C(=O)N[C@H](C(=O)N[C@H]1CSSC[C@@H](C(=O)N[C@@H](Cc2c[nH]cn2)C(=O)N[C@@H](CCCNC(=N)N)C(=O)N[C@@H](CCCNC(=N)N)C(=O)N[C@@H](C)C(=O)N[C@@H](CC(N)=O)C(N)=O)NC(=O)[C@H](C(C)C)NC(=O)[C@H](CCCNC(=N)N)NC(=O)[C@H](C(C)C)NC(=O)[C@H](C(C)C)NC(=O)[C@H](CC(N)=O)NC(=O)[C@H](CCCNC(=N)N)NC(=O)[C@H](Cc2ccc(O)cc2)NC(=O)[C@H](C(C)C)NC1=O)C(C)C [V112N6NH2] (H-VFAWNVCVYRNVVRVCHRRAN-NH2; disulfide 7-16 (inferred)),12.5,32,6.25 to 12.51,1.56 to 3.13,–,–,–,–,–,–,–,–,–,–,66.67,–
